Test results as given in patent US10017523B2, “NAMPT inhibitors and methods” (Genzyme Corporation, priority 2014, dated 2018).

How the values were obtained:
Recombinant NAMPT enzyme = target: T1, Recombinant NAMPT enzyme (Homo sapiens, UniProt P43490); assay: Inhibition of NAMPT enzymatic activity; format: biochemical; conditions: 6 hours at 37° C., NMN product detected
T1 construct: purchased MBL
Experimental: Recombinant NAMPT enzyme (MBL) was briefly pre-incubated in the absence or presence of inhibitor followed by addition of nicotinamide. Enzymatic reaction was allowed to proceed for 6 hours at 37° C. Reaction was terminated and NMN reaction product detected using the method as described in: Zhang R Y, Qin Y, Lv X Q, Wang P, Xu T Y, Zhang L, Miao C Y., Anal. Biochem. 2011 May 1; 412(1):18-25.
(§1) The 50% inhibitory concentration (IC50) is the concentration at which 50% of the maximal activity was inhibited.

primary human T cells = assay: Anti-proliferative activity on T cells (CD3/CD28 stimulated, CellTiterGlo); format: cell-based; conditions: T-cell, 72 h, CD3/CD28 beads
Experimental: (§2) Fresh primary human T cells obtained from Analytical Biological Services (Wilmington, Del.) were diluted to 1×10^^6 cells per ml in AIM-V medium (Invitrogen), and stimulated with CD3/CD28 beads (Invitrogen) in the absence or presence of inhibitor for 72 hours at 37° C./5% CO2 prior to viability determination using CellTiterGlo (Promega) per manufacturer's instruction.
as §1

[1] = tested on: chronic myelogenous leukemia (K562); assay: Anti-proliferative activity on K562 cell line; format: cell-based; conditions: Homo sapiens, K562, 72 h, CellTiterGlo
Experimental: (§3) Leukemia/Lymphoma cell lines (ATCC) were diluted in vendor-recommended media and incubated in the absence or presence of inhibitor for 72 hours at 37° C./5% CO2 prior to viability determination using CellTiterGlo (Promega) per manufacturer's instruction. The human cell lines studied include acute T-cell leukemia (JURKAT), chronic myelogenous leukemia (K562), and B-cell acute lymphocytic leukemia (NALM6 and SUP-B15).

[2] = tested on: B-cell acute lymphocytic leukemia (SUP-B15); assay: Anti-proliferative activity on SUP-B15 cell line; format: cell-based; conditions: Homo sapiens, SUP-B15, 72 h, CellTiterGlo
Experimental: as §3

primary human B cells = assay: Anti-proliferative activity on B cells (anti-IgM stimulated, CellTiterGlo); format: cell-based; conditions: B-cell, 72 h, anti-IgM 10 ug/ml
Experimental: as §2, with “human B” for “human T”, “with anti-IgM (10 ug/ml) (KPL)” for “with CD3/CD28 beads (Invitrogen)”
as §1

[3] = tested on: acute T-cell leukemia (JURKAT); assay: Anti-proliferative activity on JURKAT cell line; format: cell-based; conditions: Homo sapiens, 72 h, CellTiterGlo
Experimental: as §3

[4] = tested on: B-cell acute lymphocytic leukemia (NALM6); assay: Anti-proliferative activity on NALM6 cell line; format: cell-based; conditions: Homo sapiens, NALM-6, 72 h, CellTiterGlo
Experimental: as §3

T1 sequence (P43490 whole entry): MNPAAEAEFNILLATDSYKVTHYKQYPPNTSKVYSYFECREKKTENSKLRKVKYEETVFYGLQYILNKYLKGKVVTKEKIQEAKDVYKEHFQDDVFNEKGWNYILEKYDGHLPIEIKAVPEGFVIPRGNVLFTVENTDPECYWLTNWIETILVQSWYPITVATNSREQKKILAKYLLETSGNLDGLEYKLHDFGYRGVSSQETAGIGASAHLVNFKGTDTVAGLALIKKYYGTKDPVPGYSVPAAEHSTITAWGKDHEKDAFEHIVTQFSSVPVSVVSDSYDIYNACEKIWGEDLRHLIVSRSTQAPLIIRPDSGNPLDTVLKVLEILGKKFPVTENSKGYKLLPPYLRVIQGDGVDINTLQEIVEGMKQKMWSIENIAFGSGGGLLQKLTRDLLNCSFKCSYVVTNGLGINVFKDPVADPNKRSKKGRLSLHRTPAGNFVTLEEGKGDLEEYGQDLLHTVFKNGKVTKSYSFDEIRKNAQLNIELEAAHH

Row | IC50 (Recombinant NAMPT enzyme) [nM] | IC50 [1] [nM] | IC50 [2] [nM] | IC50 [3] [nM] | IC50 [4] [nM] | SMILES | IC50 (primary human T cells) [nM] | IC50 (primary human B cells) [nM]
1 | 66.7 | 35.7 | 1.89 | 16.3 | 11.9 | CCCN1CCC2(CC1)CC(=O)c1cc(-c3ccc(C(=O)NCc4cncs4)cn3)ccc1O2 [6-(4-oxo-1′-propylspiro[chroman-2,4′-piperidin]-6-yl)-N-(thiazol-5-ylmethyl)nicotinamide] | 1080 | 15.2
2 | 1 | 2.94 | 1.47 | 3.66 | 3.48 | CC(C)N1CCC2(CC1)CC(=O)c1cc(-c3ccc(C(=O)NCc4cccnc4F)cc3)ccc1O2 [N-((2-fluoropyridin-3-yl)methyl)-4-(1′-isopropyl-4-oxospiro[chroman-2,4′-piperidin]-6-yl)benzamide] | 5790 | 9.9
3 | 1 | 44.7 | 2.3 | 12.2 | 7.42 | CCc1cc(CNC(=O)c2ccc(-c3ccc4c(c3)C(=O)CC3(CCN(C(C)C)CC3)O4)cc2)on1 [N-((3-ethylisoxazol-5-yl)methyl)-4-(1′-isopropyl-4-oxospiro[chroman-2,4′-piperidin]-6-yl)benzamide] | 1720 | 21.3
4 | 2 | 25 | 2.07 | 7.78 | 6.74 | CCCN1CCC2(CC1)CC(=O)c1cc(-c3ccc(C(=O)NCc4cc(C)no4)cc3)ccc1O2 [N-((3-methylisoxazol-5-yl)methyl)-4-(4-oxo-1′-propylspiro[chroman-2,4′-piperidin]-6-yl)benzamide] | 677 | 12.9
5 | 1 | 25.8 | 1.04 | 6.38 | 3.63 | CCCN1CCC2(C=Cc3cc(-c4ccc(C(=O)NCc5cc(C)no5)cn4)ccc3O2)CC1 [N-((3-methylisoxazol-5-yl)methyl)-6-(1′-propylspiro[chromene-2,4′-piperidin]-6-yl)nicotinamide] | 342 | 4.4
6 | 1 | 19.4 | 0.706 | 3.54 | 2.25 | CCCN1CCC2(CC1)CC(=O)c1cc(-c3ccc(C(=O)NCc4cc(C)no4)cn3)ccc1O2 [N-((3-methylisoxazol-5-yl)methyl)-6-(4-oxo-1′-propylspiro[chroman-2,4′-piperidin]-6-yl)nicotinamide] | 731 | 5.9

The remaining lines, values behind:

Row | SMILES | IC50 (Recombinant NAMPT enzyme) [nM] | IC50 [1] [nM] | IC50 [2] [nM] | IC50 [3] [nM] | IC50 [4] [nM] | IC50 (primary human T cells) [nM] | IC50 (primary human B cells) [nM]
7 | CC(C)N1CCC2(CC1)Oc1ccc(-c3ccc(C(=O)CCc4cncs4)cc3)cc1C(=O)N2C [1′-isopropyl-3-methyl-6-(4-(3-(thiazol-5-yl)propanoyl)phenyl)spiro[benzo[e][1,3]oxazine-2,4′-piperidin]-4(3H)-one] | 166 | 112 | 2.85 | 34.7 | 18.6 | 3190 | 40.8
8 | Cc1ccc(CNC(=O)c2ccc(-c3ccc4c(c3)C(=O)CC3(CCN(C(C)C)CC3)O4)c(F)c2)cn1 [3-fluoro-4-(1′-isopropyl-4-oxospiro[chroman-2,4′-piperidin]-6-yl)-N-((6-methylpyridin-3-yl)methyl)benzamide] | 2 | 1730 | 2.22 | 21.3 | 10.7 | 8510 | 53.9
9 | O=C(NCc1cncc(F)c1)c1ccc(-c2ccc3c(n2)C(=O)CC2(CCN(CC4CCC4)CC2)O3)cc1 [4-(1-(cyclobutylmethyl)-4′-oxo-3′,4′-dihydrospiro[piperidine-4,2′-pyrano[3,2-b]pyridin]-6′-yl)-N-((5-fluoropyridin-3-yl)methyl)benzamide] | 66.4 | 332 | 7.29 | 154 | 48.9 | 3990 | 83
10 | Cc1ccc(CNC(=O)c2ccc(-c3ccc4c(c3)C(=O)N(C)C3(CCN(C(C)C)CC3)O4)cc2)cn1 [4-(1′-isopropyl-3-methyl-4-oxo-3,4-dihydrospiro[benzo[e][1,3]oxazine-2,4′-piperidin]-6-yl)-N-((6-methylpyridin-3-yl)methyl)benzamide] | 2 | 28.3 | 0.663 | 7.67 | 5.26 | 4620 | 15.3
11 | Cc1cc(CNC(=O)c2ccc(-c3ccc4c(c3)C(=O)CC3(CCN(C(C)C)CC3)O4)cc2)no1 [4-(1′-isopropyl-4-oxospiro[chroman-2,4′-piperidin]-6-yl)-N-((5-methylisoxazol-3-yl)methyl)benzamide] | 1 | 63.6 | 1.17 | 10.7 | 2.69 | 3240 | 11.3
12 | COCCCN1CCC2(CC1)CC(=O)c1cc(-c3ccc(C(=O)NCc4cncs4)cn3)ccc1O2 [6-(1′-(3-methoxypropyl)-4-oxospiro[chroman-2,4′-piperidin]-6-yl)-N-(thiazol-5-ylmethyl)nicotinamide] | 141 | 54.4 | 1.83 | 19.6 | 9.38 | 3290 | 43.8
13 | COCCCN1CCC2(C=Cc3cc(-c4ccc(C(=O)NCc5cncs5)cn4)ccc3O2)CC1 [6-(1′-(3-methoxypropyl)spiro[chromene-2,4′-piperidin]-6-yl)-N-(thiazol-5-ylmethyl)nicotinamide] | 56.4 | 85.8 | 1.7 |  | 13.9 | 5790 | 45.5
14 | CCCCN1CCC2(CC1)CC(=O)c1cc(-c3ccc(C(=O)NCc4cncs4)cn3)ccc1O2 [6-(1′-butyl-4-oxospiro[chroman-2,4′-piperidin]-6-yl)-N-(thiazol-5-ylmethyl)nicotinamide] | 29.9 | 19.8 | 1.03 | 8.85 | 5.73 | 1880 | 24.8
15 | CCN1CCC2(CC1)CC(=O)c1cc(-c3ccc(C(=O)NCc4cncs4)cn3)ccc1O2 [6-(1′-ethyl-4-oxospiro[chroman-2,4′-piperidin]-6-yl)-N-(thiazol-5-ylmethyl)nicotinamide] | 271 | 180 | 5.15 | 43.6 | 21.6 | 3360 | 50.9
16 | CC(C)N1CCC2(CC1)Oc1ccc(-c3ccc(C(=O)NCc4cncs4)cn3)cc1C(=O)N2C [6-(1′-isopropyl-3-methyl-4-oxo-3,4 dihydrospiro[benzo[e][1,3]oxazine-2,4′-piperidin]-6-yl)-N-(thiazol-5-ylmethyl)nicotinamide] | 107 | 75.7 | 2.14 | 33 | 17.6 | 1550 | 25.4
17 | CC(C)N1CCC2(CC1)Oc1ccc(-c3ccc(C(=O)NCc4cnn(C)c4)cn3)cc1C(=O)N2C [6-(1′-isopropyl-3-methyl-4-oxo-3,4-dihydrospiro[benzo[e][1,3]oxazine-2,4′-piperidin]-6-yl)-N-((1-methyl-1H-pyrazol-4-yl)methyl)nicotinamide] | 15 | 629 | 20.9 | 181 | 122 | 6110 | 97.7
18 | Cc1cc(CNC(=O)c2ccc(-c3ccc4c(c3)C(=O)NC3(CCN(C(C)C)CC3)O4)nc2)on1 [6-(1′-isopropyl-4-oxo-3,4-dihydrospiro[benzo[e][1,3]oxazine-2,4′-piperidin]-6-yl)-N-((3-methylisoxazol-5-yl)methyl)nicotinamide] | 3 | 876 | 3.19 | 24.8 | 17.1 | 14600 | 29.2
19 | CC(C)N1CCC2(CC1)CC(=O)c1cc(-c3ccc(C(=O)NCc4cnn(C)c4)cn3)ccc1O2 [6-(1′-isopropyl-4-oxospiro[chroman-2,4′-piperidin]-6-yl)-N-((1-methyl-1H-pyrazol-4-yl)methyl)nicotinamide] | 14 | 304 | 14.1 | 209 | 102 | 5590 | 59.8
